Numbering of substitutions follows the chain as printed. Where two headings read alike, the source gives them in different places. Where no end group is shown, it is not given here. [ ]: non-standard residue; d: D form. The star is where a group is joined. Met(O) = CS(=O)CC[C@H](N)C(=O)O; Hexanoyl = CCCCCC(=O)*; Aib = CC(C)(N)C(=O)O
T1: human VPAC2 (Homo sapiens, UniProt P41587)
T1 construct: expressed in transfected cells
T1 sequence (P41587 24-438): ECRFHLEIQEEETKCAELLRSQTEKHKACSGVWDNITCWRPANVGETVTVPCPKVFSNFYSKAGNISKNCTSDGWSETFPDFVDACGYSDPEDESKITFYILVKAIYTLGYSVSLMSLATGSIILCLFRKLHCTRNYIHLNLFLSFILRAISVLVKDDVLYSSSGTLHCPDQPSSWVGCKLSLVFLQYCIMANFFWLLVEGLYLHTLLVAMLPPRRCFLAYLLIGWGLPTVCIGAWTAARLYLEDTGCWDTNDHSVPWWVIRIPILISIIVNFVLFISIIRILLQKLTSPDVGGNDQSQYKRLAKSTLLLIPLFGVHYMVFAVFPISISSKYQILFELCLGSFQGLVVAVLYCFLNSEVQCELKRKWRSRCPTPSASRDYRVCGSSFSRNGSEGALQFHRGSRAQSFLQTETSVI

T2: human PAC1 (Homo sapiens, UniProt P41586)
T2 sequence (P41586 21-468): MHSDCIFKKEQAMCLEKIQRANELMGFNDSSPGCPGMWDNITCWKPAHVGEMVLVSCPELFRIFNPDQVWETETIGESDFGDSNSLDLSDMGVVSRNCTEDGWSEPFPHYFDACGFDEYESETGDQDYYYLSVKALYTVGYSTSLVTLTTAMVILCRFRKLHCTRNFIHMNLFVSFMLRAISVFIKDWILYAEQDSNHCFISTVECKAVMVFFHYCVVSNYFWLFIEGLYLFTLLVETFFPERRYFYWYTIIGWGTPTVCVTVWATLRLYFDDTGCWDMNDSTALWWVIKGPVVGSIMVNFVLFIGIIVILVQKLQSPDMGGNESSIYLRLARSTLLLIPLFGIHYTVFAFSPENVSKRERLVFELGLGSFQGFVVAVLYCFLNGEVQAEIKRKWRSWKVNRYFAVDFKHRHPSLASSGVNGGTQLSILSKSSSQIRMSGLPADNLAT

T3: human VPAC1 (Homo sapiens, UniProt P32241)
T3 sequence (P32241 31-457): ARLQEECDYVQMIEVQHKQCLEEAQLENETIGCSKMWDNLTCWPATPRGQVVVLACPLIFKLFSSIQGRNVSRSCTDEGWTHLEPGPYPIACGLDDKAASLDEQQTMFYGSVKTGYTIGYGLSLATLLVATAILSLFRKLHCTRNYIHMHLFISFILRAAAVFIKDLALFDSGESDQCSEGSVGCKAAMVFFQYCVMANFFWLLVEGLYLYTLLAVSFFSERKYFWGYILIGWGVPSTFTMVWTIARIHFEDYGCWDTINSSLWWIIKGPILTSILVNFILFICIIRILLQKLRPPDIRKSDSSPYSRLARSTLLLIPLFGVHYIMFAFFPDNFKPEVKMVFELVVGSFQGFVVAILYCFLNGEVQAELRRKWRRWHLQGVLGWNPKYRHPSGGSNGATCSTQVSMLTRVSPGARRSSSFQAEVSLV

T4: human VPAC2 receptor (human, UniProt P41587 24-438)
T4 sequence (looked up): T1 sequence (P41587 24-438)

B1: P123 (peptide)
peptide: Hexanoyl-HSDAVFTDNYTRLRKQVAAKKYLQSIKNKRGGPSSGAPPPS
B2: P122 (peptide)
peptide: Hexanoyl-HSDAVFTDNYTRLRKQVAAKKYLQSIKNSRGGPSSGAPPPS
B3: P187 (peptide)
peptide: Hexanoyl-HSDAVFTDNYTRLRKQVAAKKYLQ[Aib]IKNKRYGGPSSGAPPPS
modifications: ends and bridges not checked
B4: P9 (peptide)
peptide: HSDAVFTDNYTRLRKQVAAKKYLQSIKNKKGGPSSGAPPPS
B5: P84 (peptide)
peptide: [dH]SDAVFTDNYTRLRKQVAAKKYLQSIKNKRYGGPSSGAPPPS
B6: P144 (peptide)
peptide: Hexanoyl-HSDAVFTDNYTRLRKQVAAQKYLNQLKKGGPSSGAPPPS
B7: P166 (peptide)
peptide: Hexanoyl-H[Aib]DAVFTDNYTRLRKQVAAKKYLQSIKNKRYGGPSSGAPPPS
modifications: ends and bridges not checked
B8: P7 (peptide)
peptide: HSDAVFTDNYTRLRKQVAAKKYLQSIKNKRGGT
B9: P8 (peptide)
peptide: B8 peptide with R30K
B10: P67 (peptide)
peptide: HSDAVWTDNYTRLRKQVAAKKYLQSIKNKRYGGPSSGAPPPS

Assays:
human VPAC2 [1] = biological target: T1, human VPAC2; test: Filter binding assay, membranes of stable VPAC2 cell line, 125I-labeled VIP tracer (Table 2)
Description: (§1) For this assay, the solutions and equipment include:
(§2) Presoak solution: 0.5% Polyethyleneamine in Aqua dest.
(§3) Buffer for flushing filter plates: 25 mM HEPES pH 7.4
(§4) Blocking buffer: 25 mM HEPES pH 7.4; 0.2% protease free BSA
(§5) Assay buffer: 25 mM HEPES pH 7.4; 0.5% protease free BSA
(§6) Dilution and assay plate: PS-Microplate, U form
(§7) Filtration Plate Multiscreen FB Opaque Plate; […] Type B Glasfiber filter
(§8) In order to prepare the filter plates, aspirate the presoak solution by vacuum filtration. Flush the plates twice with 200 μL flush buffer. Add 200 μL blocking buffer to the filter plate. The filter plate is then incubated […] for 1 hour at room temperature.
(§9) Fill the assay plate with 25 μL assay buffer, 25 μL membranes (2.5 μg) suspended in assay buffer, 25 μL compound (agonist) in assay buffer, and 25 μL tracer (about 40000 cpm) in assay buffer. Incubate the filled plate for 1 hour with shaking.
(§10) Conduct the transfer from assay plate to filter plate. Aspirate the blocking buffer by vacuum filtration and wash two times with flush buffer. Transfer 90 μL from the assay plate to the filter plate. Aspirate the 90 μL transferred from assay plate and wash three times with 200 μL flush buffer. Remove the plastic support. Dry for 1 hour at 60° C. Add 30 μL Microscint. Perform the count.

human VPAC2 [2] = biological target: T1, human VPAC2; test: Alpha screen cAMP in vitro potency, human VPAC2 receptor; assay type: cell-based; conditions: cAMP generation; single result from two analyses performed in a single run; read-out: Human VPAC2 Receptor: Alpha Screen EC50
Description: Alpha screen: Cells are washed in the culture flask once with PBS. Then, the cells are rinsed with enzyme free dissociation buffer. The dissociated cells are removed. The cells are then spun down and washed in stimulation buffer. For each data point, 50,000 cells suspended in stimulation buffer are used. To this buffer, Alpha screen acceptor beads are added along with the stimuli. This mixture is incubated for 60 minutes. Lysis buffer and Alpha screen donor beads are added and are incubated for 60 to 120 minutes. The Alpha screen signal (indicative of intracellular cAMP levels) is read in a suitable instrument (e.g. AlphaQuest from Perkin-Elmer). Steps including Alpha screen donor and acceptor beads are performed in reduced light.

human PAC1 = biological target: T2, human PAC1; test: Filter binding assay, membranes of cells transiently transfected with human PAC1, 125I-labeled PACAP-27 tracer (Table 2); parameters: expressed in transfected cells
Description: as §1, §2, §3, §4, §5, §6, §7, §8, §9, §10

human VPAC1 = biological target: T3, human VPAC1; test: Filter binding assay, membranes of cells transiently transfected with human VPAC1, 125I-labeled VIP tracer (Table 2); parameters: expressed in transfected cells
Description: as §1, §2, §3, §4, §5, §6, §7, §8, §9, §10

human VPAC2 receptor = biological target: T4, human VPAC2 receptor; test: cell-based or functional assay
[3] = read-out: Human VPAC2 Receptor Binding
[4] = read-out: Human PAC1 Receptor Binding
[5] = read-out: Human VPAC1 Receptor Binding

Molecule	IC50 (human VPAC2 [1]; [3])	IC50 (human PAC1; [4])	IC50 (human VPAC1; [5])	other results
Hexanoyl-HSDAVFTDQYTRLLAKLALQKYLQSIKQKRYGGPSSGAPPPS [Agonist P192]	0.53 nM	14300 nM	1430 nM	EC50 (human VPAC2 [2]): 0.18 nM
Hexanoyl-HSDAVFTDNYTRLRKQVAAKKYLQSYKNKRYGGPSSGAPPPS [Agonist P111]	0.19 nM	258 nM	300 nM	EC50 (human VPAC2 [2]): 0.34 nM
HSDAVFTDNYTREKEKVAAKKYLQSIKNKRYGGPSSGAPPPS [Agonist P87]	1110 nM		636 nM	EC50 (human VPAC2 [2]): > 10000 nM
[dH]SDAVFTDNYTRLRKQVAAKKYLQSIKNKRYGGPSSGAPPPS [Agonist P84]	20 nM		469 nM	
Hexanoyl-HSDAVFTDNYTRLRKQVAAKKYLQSLKNKRYGGPSSGAPPPS [Agonist P107]	0.16 nM	225 nM	122 nM	EC50 (human VPAC2 [2]): 0.12 nM
Hexanoyl-HSDAVFTLNYTRLRKQVAAKKYLQSIKNKRYGGPSSGAPPPS [Agonist P161]	6.61 nM	4260 nM	119 nM	
Hexanoyl-HHSDAVFTDNYTRLLAKLALQKYLQSIKNKRYGGPSSGAPPPS [Agonist P191]	60.6 nM	> 25000 nM	1280 nM	
IHSDAVFTDNYTRLRKQVAAKKYLQSIKNKRYGGPSSGAPPPS [Agonist P105]				IC50 (human VPAC2 [1]): 5.41 nM; IC50 (human PAC1): 127 nM; IC50 (human VPAC1): 263 nM
Hexanoyl-HSDAVFTDNYTRLRKQVAAKKTLQSIKNKRYGGPSSGAPPPS [Agonist P131]	5.67 nM	632 nM	1370 nM	
HSDAVFTDNYTRLRKQVAAKKYLQSIKRGGPSSGAPPPS [Agonist P82]	1.9 nM		195 nM	
HSDAVFTDNYTRLRKQVAAKKYLQSIKKGGPSSGAPPPS [Agonist P85]	1.7 nM		226 nM	
H-HSDGVFTDNYTRLRKQVAAKKYLQSIKNKRYGGPSSGAPPPS [Agonist P102]				IC50 (human VPAC2 [1]): 15.4 nM; IC50 (human PAC1): 55 nM; IC50 (human VPAC1): 184 nM
H-H[dA]DAVFTDNYTRLRKQVAAKKYLQSIKNKRYGGPSSGAPPPS [Agonist P47]	0.84 nM		124 nM	
[Met(O)]HSDAVFTDNYTRLRKQVAAKKYLQSIKNKRYGGPSSGAPPPS [Agonist P199]				IC50 (human VPAC2 [1]): 8.26 nM; IC50 (human PAC1): 244 nM; IC50 (human VPAC1): 429 nM
Hexanoyl-HSDAVFTDNYTRLRKQVAAKKLLQSIKNKRYGGPSSGAPPPS [Agonist P132]	1.51 nM	1020 nM	617 nM	
HSDAVFTDNYTRLRRQVAAKKYLQSIKNKRYGGPSSGAPPPS [Agonist P72]	1.52 nM		159 nM	
HSDAVFTDNYTRLRRQVAARRYLQSIRNRRYGGPSSGAPPPS [Agonist P71]	1.52 nM		73.1 nM	
CCCCCC(=O)N[C@@H](Cc1c[nH]cn1)C(=O)N[C@@H](CO)C(=O)N[C@@H](CC(=O)O)C(=O)N[C@@H](C)C(=O)N[C@H](C(=O)N[C@@H](Cc1ccccc1)C(=O)N[C@H](C(=O)N[C@@H](CC(=O)O)C(=O)N[C@@H](CC(N)=O)C(=O)N[C@@H](Cc1ccc(O)cc1)C(=O)N[C@H](C(=O)N[C@@H](CCCNC(=N)N)C(=O)N[C@@H](CC(C)C)C(=O)N[C@@H](CCCNC(=N)N)C(=O)N[C@@H](CCCCN)C(=O)N[C@@H](CCC(N)=O)C(=O)NC(C)(C)C(=O)N[C@@H](C)C(=O)N[C@@H](C)C(=O)N[C@@H](CCCCN)C(=O)N[C@@H](CCCCN)C(=O)N[C@@H](Cc1ccc(O)cc1)C(=O)N[C@@H](CC(C)C)C(=O)N[C@@H](CCC(N)=O)C(=O)N[C@@H](CO)C(=O)N[C@H](C(=O)N[C@@H](CCCCN)C(=O)N[C@@H](CC(N)=O)C(=O)N[C@@H](CCCCN)C(=O)N[C@@H](CCCNC(=N)N)C(=O)N[C@@H](Cc1ccc(O)cc1)C(=O)NCC(=O)NCC(=O)N1CCC[C@H]1C(=O)N[C@@H](CO)C(=O)N[C@@H](CO)C(=O)NCC(=O)N[C@@H](C)C(=O)N1CCC[C@H]1C(=O)N1CCC[C@H]1C(=O)N1CCC[C@H]1C(=O)N[C@@H](CO)C(=O)O)[C@@H](C)CC)[C@@H](C)O)[C@@H](C)O)C(C)C [Agonist P189]	0.2 nM	303 nM	6.87 nM	
Hexanoyl-HSDAVFTRNYTRLRKQVAAKKYLQSIKNKRYGGPSSGAPPPS [Agonist P162]	3.72 nM	186 nM	5.14 nM	
Hexanoyl-HSDAVFTDNYTRLRKQVAAKKVLQSIKNKRYGGPSSGAPPPS [Agonist P134]	2.13 nM	479 nM	833 nM	
B1				EC50 cAMP, Alpha Screen (human VPAC2 receptor): 0.12 nM
B2				EC50 cAMP, Alpha Screen (human VPAC2 receptor): 0.14 nM
B3				EC50 cAMP, Alpha Screen (human VPAC2 receptor): 0.4 nM
B4				EC50 cAMP, DiscoveRx (human VPAC2 receptor): 2.41 nM
B5				EC50 cAMP, Alpha Screen (human VPAC2 receptor): 185 nM
B6				EC50 cAMP, Alpha Screen (human VPAC2 receptor): 0.32 nM
B7				EC50 cAMP, Alpha Screen (human VPAC2 receptor): 0.15 nM
B8				EC50 cAMP, DiscoveRx (human VPAC2 receptor): 2.78 nM
B9				EC50 cAMP, DiscoveRx (human VPAC2 receptor): 1.61 nM
B10				EC50 cAMP, Alpha Screen (human VPAC2 receptor): 94.1 nM
